According to US4055553A, “(Gly3 -Ala)^1 -somatostatin” (American Home Products Corporation, priority 1975, dated 1977):

Experiments:
growth hormone = assay: arginine-stimulated hormone release in Nembutal-anaesthetised rats, blood assayed for growth hormone; format: in vivo, albino male rats; conditions: saline control 133 ± 15
Method: (§1) The in vivo activity of the compounds of this invention was established by subjecting (Gly3 -Ala)^1 -Somatostatin, as a representative compound of this invention, to the following standard test procedure: three groups of nine albino male rats were arranged to provide a control group, a group for observation of Somatostatin activity as the standard and a group for the study of the test compound (Gly3 -Ala)^1 -Somatostatin. Nembutal (50 mg/kg) was injected intraperitoneally into each rat. Fifteen minutes later a subcutaneous injection of the test compound, somatostatin (200 μg/kg) and physiological saline was administered separately to each of the three groups of rats. Ten minutes later 0.5 milliliters of arginine (300 mg/ml, pH 7.2) was injected into the rats heart. The rats were decapitated five minutes later and their blood was collected in Trasylol® -EDTA. Aliquot samples were assayed for growth hormone, glucagon and/or insulin. The compound of this invention, selected as representative of the group of compounds disclosed for test pruposes, was employed in two distinct test procedures at the 100 μg/kg and 300 μg/kg dose levels.

insulin = assay: arginine-stimulated hormone release in Nembutal-anaesthetised rats, blood assayed for insulin; format: in vivo, albino male rats
Method: as §1

[1] = tested on: growth hormone, glucagon and/or insulin; assay: standard in vivo test procedure, overall activity compared with somatostatin; parameters: species or system albino male rats; conditions: at the 100 and 300 μg/kg dose levels
Method: as §1

glucagon = assay: arginine-stimulated hormone release in Nembutal-anaesthetised rats, blood assayed for glucagon; format: in vivo, albino male rats
Method: as §1

SMILES	GH (growth hormone; second test, test compound 300 μg/kg subcutaneous)	Insulin (insulin; first test, test compound 100 μg/kg subcutaneous, arginine intracardiac 10 min later, blood 5 min after arginine, saline control 199 ± 15)	Insulin (insulin; second test, test compound 300 μg/kg subcutaneous, saline control 165 ± 13)	activity relative to somatostatin itself [1]	Glucagon (glucagon; first test, test compound 100 μg/kg subcutaneous, arginine intracardiac 10 min later, blood 5 min after arginine, saline control 6.4 ± 1.5)	Glucagon (glucagon; second test, test compound 300 μg/kg subcutaneous, saline control 4.2 ± 0.6)	GH (growth hormone; second test (run beside the 300 μg/kg group), somatostatin standard 200 μg/kg subcutaneous)	Insulin (insulin; first test (run beside the 100 μg/kg group), somatostatin standard 200 μg/kg subcutaneous, saline control 199 ± 15)	Insulin (insulin; second test (run beside the 300 μg/kg group), somatostatin standard 200 μg/kg subcutaneous, saline control 165 ± 13)	Glucagon (glucagon; first test (run beside the 100 μg/kg group), somatostatin standard 200 μg/kg subcutaneous, saline control 6.4 ± 1.5)	Glucagon (glucagon; second test (run beside the 300 μg/kg group), somatostatin standard 200 μg/kg subcutaneous, saline control 4.2 ± 0.6)
C[C@H](NC(=O)CNC(=O)CNC(=O)CN)C(=O)NCC(=O)N[C@H]1CSSC[C@@H](C(=O)O)NC(=O)[C@H](CO)NC(=O)[C@H]([C@@H](C)O)NC(=O)[C@H](Cc2ccccc2)NC(=O)[C@H]([C@@H](C)O)NC(=O)[C@H](CCCCN)NC(=O)[C@H](Cc2c[nH]c3ccccc23)NC(=O)[C@H](Cc2ccccc2)NC(=O)[C@H](Cc2ccccc2)NC(=O)[C@H](CC(N)=O)NC(=O)[C@H](CCCCN)NC1=O [(Gly3 -Ala)^1 -Somatostatin, glycyl-glycyl-glycyl-L-alanylglycyl-L-cysteinyl-L-lysyl-L-asparaginyl-L-phenylalanyl-L-phenylalanyl-L-tryptophyl-L-lysyl-L-threonyl-L-phenylalanyl-L- threonyl-L-seryl-L-cysteine cyclic (6→.intg.) disulfide, triacetate]	27 ± 7 ng/mL	130 ± 14 μ units/ml	104 ± 10 μ units/ml	comparable in activity	0.5 ± 0.1 picograms/ml	1.4 ± 0.7 picograms/ml	–	–	–	–	–
C[C@H](N)C(=O)NCC(=O)N[C@H]1CSSC[C@@H](C(=O)O)NC(=O)[C@H](CO)NC(=O)[C@H]([C@@H](C)O)NC(=O)[C@H](Cc2ccccc2)NC(=O)[C@H]([C@@H](C)O)NC(=O)[C@H](CCCCN)NC(=O)[C@H](Cc2c[nH]c3ccccc23)NC(=O)[C@H](Cc2ccccc2)NC(=O)[C@H](Cc2ccccc2)NC(=O)[C@H](CC(N)=O)NC(=O)[C@H](CCCCN)NC1=O [Somatostatin]	–	–	–	–	–	–	12 ± 2 ng/mL	202 ± 29 μ units/ml	115 ± 11 μ units/ml	1.5 ± 0.8 picograms/ml	1.6 ± 0.9 picograms/ml
